The assay deals with T1, mouse VISTA (mVISTA) (Mus musculus, UniProt Q9D659).
T1 construct: expressed in transfected cells; host or cells: Human embryonic kidney 293T cells
T1 sequence (Q9D659 33-308): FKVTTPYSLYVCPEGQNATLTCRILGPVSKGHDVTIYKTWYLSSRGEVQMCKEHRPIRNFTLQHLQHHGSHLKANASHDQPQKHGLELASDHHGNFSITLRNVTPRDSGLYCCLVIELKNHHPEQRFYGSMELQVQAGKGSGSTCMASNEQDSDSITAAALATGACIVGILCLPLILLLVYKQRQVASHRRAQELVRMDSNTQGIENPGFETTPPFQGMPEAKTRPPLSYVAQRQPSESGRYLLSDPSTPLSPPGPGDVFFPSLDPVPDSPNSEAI
As to the kind of experiment: Cell-Based Binding High-Content Assay For mVISTA (HC CBA mVISTA). As for the experimental part: Cell-Based Binding High-Content Assay For mVISTA
Human embryonic kidney 293T cells (293T) expressing mouse VISTA (mVISTA) were used for the assessment of compounds competing with the binding of a biotinylated peptide. Cryopreserved cells were thawed in a 37° C. water bath and incubated overnight at a 37° C./5% CO2 incubator in assay culture media DMEM (Life Technologies Inc. Cat. No. 11995-126) supplemented with 10% (v/v) FBS (Sigma, Cat. No. F4135), 1× Penicillin/Streptomycin (Life Technologies Inc. Cat. No. 15140-122). Cells were harvested, washed and resuspended in DMEM media […]. To test compounds under “no-wash” condition, cells were seeded into PDL-coated 384 well plates (Corning, Cat. No. 356663) at 4,000 cells/20 μL. After incubating the cell plates for two hours at a 37° C./5% CO2 incubator, 125 nL of test compound was added using an ECHO. Alternatively, to test compounds under “wash” condition, test compounds were added first, followed by addition of 20 μL cells at a density of 4000 cells/well. After incubation for an hour, the media was removed, followed by addition of 20 μL of fresh media ( ), and plates were then incubated for another hour. To plates either under “no wash” or “wash” condition, the biotinylated peptide was added to a final concentration of 2 nM, and plates were incubated at room temperature for 30 minutes. Fifteen (15) μL of Alexa 647 conjugated Streptavidin (Life Tech, Cat. No. S21374), suspended at 2 μg/ml in media, was added to the assay plate and incubate for 30 minutes. Cells were fixed by adding 15 μL of formaldehyde at a final concentration of 8% (w/v) (Sigma Cat. No. 252549), 20 μg/mL Hoechst (Thermo Scientific Cat. No. 62249) in PBS for 10 minutes at room temperature. The plates were washed 3 times in dPBS, sealed, and read on a CellInsight NXT High Content Screening Platform IC903000 (Thermo Scientific). The 50% effective concentration (IC50) was calculated using the four-parameter logistic formula y=A+((B−A)/(1+((C/x)^D))), where A and B denote minimal and maximal % inhibition, respectively, C is the EC50, D is hill slope and x represent compound concentration.

Where [1] appears, read: 293T cells expressing mouse VISTA, competition with biotinylated peptide (2 nM), read-out: HC CBA mVISTA IC50.
Where [2] appears, read: the 19th table, scaffold drawing 22, read-out: HC CBA mVISTA IC50.

Read-outs that look alike come from different tables or passages of the source. Starred links: 1 amine or outer side, 2 acyl side, 3 side chain; linkers in the order of their positions; H or OH if unused. Positions of bridges follow the written chain, without caps; N, C: chain ends. Non-standard residues stand in square brackets, D forms with d. Residues, ends and D or L forms follow the SMILES beside them. Phe(3-Me) = Cc1cccc(C[C@H](N)C(=O)O)c1; 2Nal = N[C@@H](Cc1ccc2ccccc2c1)C(=O)O; βAsp = O=C(O)[C@H](CC(=O)[*:2])N[*:1]; Ahp(2) = CCCCC[C@H](N)C(=O)O; NMeNle = CCCC[C@H](NC)C(=O)O; Tle = CC(C)(C)[C@H](N)C(=O)O; NHexGly = CCCCCCNCC(=O)O; Nle = CCCC[C@H](N)C(=O)O; Orn = NCCC[C@H](N)C(=O)O; Aun = NCCCCCCCCCCC(=O)O; Dab = NCC[C@H](N)C(=O)O; Abu = CC[C@H](N)C(=O)O; AEEA = NCCOCCOCC(=O)O

With `CCCCCCN1CC(=O)N[C@@H](Cc2ccc(O)cc2)C(=O)N[C@@H](CC)C(=O)NCC(=O)N[C@@H](CCCNC(=N)N)C(=O)N[C@@H](CC(C)C)C(=O)N[C@@H](CCCCC)C(=O)N2CCC[C@H]2C(=O)N[C@@H](C(C)C)C(=O)N[C@@H](CO)C(=O)N[C@H](C(=O)NCC(=O)O)CSCC(=O)N[C@@H](Cc2ccccc2)C(=O)N[C@@H](Cc2ccc(O)cc2)C(=O)N[C@@H](CC(=O)O)C1=O` [Example 1062] ({CH2CO}-FYD[NHexGly]Y[Abu]GRL[Ahp(2)]PVSCG-OH; thioether N-14), the IC50 – broadly, the midpoint of a concentration-inhibition curve – under setting [1] stood at 15.2 nM.
Take `CCCCCCN1CC(=O)N[C@@H](Cc2ccc(O)cc2)C(=O)N[C@@H](CC(C)C)C(=O)N[C@@H](CC(N)=O)C(=O)N[C@@H](CCCNC(=N)N)C(=O)N[C@@H](CC(C)C)C(=O)N[C@@H](CCCCC)C(=O)N2CCC[C@H]2C(=O)N[C@@H](C(C)C)C(=O)N[C@@H](CO)C(=O)N[C@H](C(=O)NCCOCCOCC(=O)N[C@@H](CC(=O)O)C(=O)NCCOCCOCC(=O)NCCCCCCCCCCC(=O)O)CSCC(=O)N[C@@H](Cc2ccccc2)C(=O)N[C@@H](Cc2ccc(O)cc2)C(=O)N[C@@H](CC(=O)O)C1=O` [compound 2285] ({CH2CO}-FYD[NHexGly]YLNRL[Ahp(2)]PVSC[AEEA]D[AEEA][Aun]-OH; thioether N-14): the IC50 (cell-based binding high-content assay, read-out: HC CBA miPrISTA IC50) is 15.2 nM.
For the compound `CCCCCCN1CC(=O)N[C@@H](Cc2ccc(O)cc2)C(=O)N[C@@H](CC(C)C)C(=O)N[C@@H](CC(N)=O)C(=O)N[C@@H](CCCNC(=N)N)C(=O)N[C@@H](CC(C)C)C(=O)N[C@@H](CCCCC)C(=O)N2CCC[C@H]2C(=O)N[C@@H](C(C)C)C(=O)N[C@@H](C(C)C)C(=O)N[C@H](C(=O)NCC(=O)O)CSCC(=O)N[C@@H](Cc2cccc(C)c2)C(=O)N[C@@H](Cc2c[nH]c3ccccc23)C(=O)N[C@@H](CC(=O)O)C1=O` [compound 1422] ({CH2CO}-[Phe(3-Me)]WD[NHexGly]YLNRL[Ahp(2)]PVVCG-OH; thioether N-14), the IC50 under setting [2] was 4.2 nM.
Turning to `CCCCCCN1CC(=O)N[C@@H](Cc2ccc(O)cc2)C(=O)N[C@@H](CCCC)C(=O)NCC(=O)N[C@@H](CCCNC(=N)N)C(=O)N[C@@H](CC(C)C)C(=O)N[C@@H](CCCCC)C(=O)N2CCC[C@H]2C(=O)N[C@@H](C(C)C)C(=O)N[C@@H](CC(=O)O)C(=O)N[C@H](C(=O)N[C@@H](CO)C(=O)O)CSCC(=O)N[C@@H](Cc2cccc(C)c2)C(=O)N[C@@H](Cc2ccc(O)cc2)C(=O)N[C@@H](CC(=O)O)C1=O` [compound 1435] ({CH2CO}-[Phe(3-Me)]YD[NHexGly]Y[Nle]GRL[Ahp(2)]PVDCS-OH; thioether N-14), the IC50 under setting [2] amounted to 9.4 nM.
On to `CCCCCCN1CC(=O)N[C@@H](Cc2ccc(O)cc2)C(=O)N[C@@H](CCCC)C(=O)N[C@@H](CC(N)=O)C(=O)N[C@@H](CCCNC(=N)N)C(=O)N(C)[C@@H](CCCC)C(=O)N[C@@H](CCCCC)C(=O)N2CCC[C@H]2C(=O)N[C@@H](C(C)(C)C)C(=O)N[C@@H](CO)C(=O)N[C@H](C(=O)N[C@@H](CC(=O)NCCOCCOCC(=O)NCCCCCCCCCCC(=O)O)C(=O)O)CSCC(=O)N[C@@H](Cc2ccc3ccccc3c2)C(=O)N[C@@H](Cc2ccc(O)cc2)C(=O)N[C@@H](CC(=O)O)C1=O` [Example 2195] ({CH2CO}-[2Nal]YD[NHexGly]Y[Nle]NR[NMeNle][Ahp(2)]P[Tle]SC[βAsp][AEEA][Aun]-OH; thioether N-14), for which the IC50 (read-out: HC CBA mVISTA IC50) came out at 30.3 nM.
Take `CCCCCCN1CC(=O)N[C@@H](Cc2ccc(O)cc2)C(=O)N[C@@H](CCCC)C(=O)N[C@@H](CC(N)=O)C(=O)N[C@@H](CCCNC(=N)N)C(=O)N[C@@H](CC(C)C)C(=O)N[C@@H](CCCCC)C(=O)N2CCC[C@H]2C(=O)N[C@@H](C(C)C)C(=O)N[C@@H](CO)C(=O)N[C@H](C(=O)NCC(=O)O)CSCC(=O)N[C@@H](Cc2ccc3ccccc3c2)C(=O)N[C@@H](Cc2ccc(O)cc2)C(=O)N[C@@H](CC(=O)O)C1=O` [Ex 1272] ({CH2CO}-[2Nal]YD[NHexGly]Y[Nle]NRL[Ahp(2)]PVSCG-OH; thioether N-14): the IC50 (cell-based binding high-content assay, mVISTA, the 16th table, read-out: HC CBA mVISTA IC50) was 2.8 nM.
As for `CCCCCCN1CC(=O)N[C@@H](Cc2ccc(O)cc2)C(=O)N[C@@H](C(C)C)C(=O)NCC(=O)N[C@@H](CCCNC(=N)N)C(=O)N[C@@H](CC(C)C)C(=O)N[C@@H](CCCCC)C(=O)N2CCC[C@H]2C(=O)N[C@@H](C(C)C)C(=O)N2CCC[C@H]2C(=O)N[C@H](C(=O)NCC(=O)O)CSCC(=O)N[C@@H](Cc2ccccc2)C(=O)N[C@@H](Cc2ccc(O)cc2)C(=O)N[C@@H](CC(=O)O)C1=O` [Example 1109] ({CH2CO}-FYD[NHexGly]YVGRL[Ahp(2)]PVPCG-OH; thioether N-14), under setting [1], the IC50 was 39.1 nM.
`CCCCCCN1CC(=O)N[C@@H](Cc2ccc(O)cc2)C(=O)N[C@@H](CCCC)C(=O)N[C@@H](CC(=O)O)C(=O)N[C@@H](CCCN)C(=O)N(C)[C@@H](CCCC)C(=O)N[C@@H](CCCCC)C(=O)N2CCC[C@H]2C(=O)N[C@@H](C(C)(C)C)C(=O)N[C@@H](CC(=O)O)C(=O)N[C@H](C(=O)NCC(N)=O)CSCC(=O)N[C@@H](Cc2ccccc2)C(=O)N[C@@H](Cc2c[nH]c3ccccc23)C(=O)N[C@@H](CC(=O)O)C1=O` [Example 1393] ({CH2CO}-FWD[NHexGly]Y[Nle]D[Orn][NMeNle][Ahp(2)]P[Tle]DCG-NH2; thioether N-14): the IC50 (read-out: HC CBA mVISTA IC50) is 17.2 nM.
As to `CCCCCCN1CC(=O)N[C@@H](Cc2ccc(O)cc2)C(=O)N[C@@H](CC(C)C)C(=O)N[C@@H](CC(N)=O)C(=O)N[C@@H](CCCNC(=N)N)C(=O)N(C)[C@@H](CCCC)C(=O)N[C@@H](CCCCC)C(=O)N2CCC[C@H]2C(=O)N[C@@H](C(C)(C)C)C(=O)N[C@@H](CC(=O)O)C(=O)N[C@H](C(=O)N[C@@H](CC(=O)NCCOCCOCC(=O)N[C@@H](CCN)C(=O)NCCOCCOCC(=O)NCCCCCCCCCCC(=O)O)C(=O)O)CSCC(=O)N[C@@H](Cc2ccccc2)C(=O)N[C@@H](Cc2ccc(O)cc2)C(=O)N[C@@H](CC(=O)O)C1=O` [compound 2329] ({CH2CO}-FYD[NHexGly]YLNR[NMeNle][Ahp(2)]P[Tle]DC[βAsp][AEEA][Dab][AEEA][Aun]-OH; thioether N-14), the IC50 (cell-based binding high-content assay, read-out: HC CBA mVISTA IC50) worked out at 22.4 nM.
In the case of `CCCCCCN1CC(=O)N[C@@H](Cc2ccc(O)cc2)C(=O)N[C@@H](CCCC)C(=O)N[C@@H](CC(N)=O)C(=O)N[C@@H](CCCNC(=N)N)C(=O)N(C)[C@@H](CCCC)C(=O)N[C@@H](CCCCC)C(=O)N2CCC[C@H]2C(=O)N[C@@H](C(C)C)C(=O)N[C@@H](CC(=O)O)C(=O)N[C@H](C(=O)NCC(=O)O)CSCC(=O)N[C@@H](Cc2cccc(C)c2)C(=O)N[C@@H](Cc2ccc(O)cc2)C(=O)N[C@@H](CC(=O)O)C1=O` [compound 1450] ({CH2CO}-[Phe(3-Me)]YD[NHexGly]Y[Nle]NR[NMeNle][Ahp(2)]PVDCG-OH; thioether N-14), under setting [2], the IC50 was 7 nM.
Turning to `CCCCCCN1CC(=O)N[C@@H](Cc2ccc(O)cc2)C(=O)N[C@@H](CCCC)C(=O)NCC(=O)N[C@@H](CCCNC(=N)N)C(=O)N[C@@H](CC(C)C)C(=O)N[C@@H](CCCCC)C(=O)N2CCC[C@H]2C(=O)N[C@@H](C(C)C)C(=O)N2CCC[C@H]2C(=O)N[C@H](C(=O)NCC(=O)O)CSCC(=O)N[C@@H](Cc2ccccc2)C(=O)N[C@@H](Cc2ccc(O)cc2)C(=O)N[C@@H](CC(=O)O)C1=O` [Example 1099] ({CH2CO}-FYD[NHexGly]Y[Nle]GRL[Ahp(2)]PVPCG-OH; thioether N-14), the concentration for half-maximal inhibition (IC50) under setting [1] worked out at 21.6 nM.
Still for that read-out and setting: the figure for `CCCCCCN1CC(=O)N[C@@H](Cc2ccc(O)cc2)C(=O)N[C@@H](CCCC)C(=O)NCC(=O)N[C@@H](CCCNC(=N)N)C(=O)N[C@@H](CC(C)C)C(=O)N[C@@H](CCCCC)C(=O)N2CCC[C@H]2C(=O)N[C@@H](C(C)C)C(=O)N[C@@H](CC(=O)O)C(=O)N[C@H](C(=O)NCC(N)=O)CSCC(=O)N[C@@H](Cc2ccccc2)C(=O)N[C@@H](Cc2ccc(O)cc2)C(=O)N[C@@H](CC(=O)O)C1=O` [Example 1017] ({CH2CO}-FYD[NHexGly]Y[Nle]GRL[Ahp(2)]PVDCG-NH2; thioether N-14) is 34 nM.

The record behind these values is patent US20240218022A1, “ANTI-VISTA MACROCYCLIC PEPTIDES AND COMPOSITIONS” (BRISTOL-MYERS SQUIBB COMPANY, priority 2022, published 2024).
